Values after ≈ are worked out from the molar mass of the structure shown. Blank lines part the entries; values can stand above or below the compound they belong to.
What was measured:
Experiment in all cases: ≥ marks a high value that may be exact or a test limit, other limits are often not marked, values filed in µg/mL are converted to µM
[1] = test system: Bacillus anthracis Sterne 34F2
[2] = test system: Bacillus subtilis var. niger ATCC 9372
Escherichia coli K91BK = test system: Escherichia coli K91BK
[3] = test system: Candida albicans NCYC 1467
[4] = test system: Enterococcus faecalis NCTC 12697
[5] = test system: Escherichia coli NCTC 10418
[6] = test system: Klebsiella pneumoniae ATCC 43816
[7] = test system: Pseudomonas aeruginosa ATCC 27853
[8] = test system: Staphylococcus aureus NCTC 10788
[9] = test system: Staphylococcus aureus NCTC 12493
Escherichia coli BW25113 = test system: Escherichia coli BW25113
[10] = test system: Bacillus subtilis ATCC 6633
[11] = test system: Escherichia coli ATCC 25922
[12] = test system: Klebsiella pneumoniae ATCC 10031
[13] = test system: Micrococcus luteus ATCC 10240
[14] = test system: Salmonella enterica subsp. enterica serovar Typhimurium ATCC 14028
[15] = test system: Shigella dysenteriae ATCC 9752
[16] = test system: Staphylococcus aureus ATCC 6538P
[17] = test system: Staphylococcus epidermidis ATCC 12228
[18] = test system: Burkholderia thailandensis
Escherichia coli W160-37 = test system: Escherichia coli W160-37
[19] = test system: Staphylococcus aureus ATCC 8530
[20] = test system: Staphylococcus aureus FDA 209P
Bacillus subtilis 168 = test system: Bacillus subtilis 168
[21] = test system: Candida albicans F7-39/IDE99
Escherichia coli B = test system: Escherichia coli B
[22] = test system: Micrococcus luteus CCM 144
Pseudomonas aeruginosa = test system: Pseudomonas aeruginosa
Staphylococcus aureus = test system: Staphylococcus aureus

SMILES: CC[C@H](C)[C@H](NC(=O)CNC(C)=O)C(=O)NCC(=O)N[C@@H](CCCCN)C(=O)N[C@@H](Cc1cnc[nH]1)C(=O)N[C@H](C(=O)NCC(=O)N[C@@H](CCCCN)C(=O)N[C@@H](C)C(=O)N[C@@H](CC(C)C)C(=O)N[C@@H](CCCCN)C(=O)NCC(=O)N[C@@H](CC(C)C)C(=O)N[C@@H](CCCCN)C(=O)NCC(=O)N[C@@H](CC(C)C)C(=O)N[C@@H](CC(C)C)C(=O)N[C@@H](CCCCN)C(=O)NCC(=O)N[C@@H](CC(C)C)C(=O)NCC(=O)N[C@@H](CCC(=O)O)C(=O)N[C@@H](CO)C(N)=O)C(C)C [GIGKHVGKALKGLKGLLKGLGES]
MIC [1]: ≥ 100 µM
MIC [2]: ≥ 100 µM
MIC (Escherichia coli K91BK): ≥ 100 µM

SMILES: CC[C@H](C)[C@H](NC(=O)[C@H](CCCCN)NC(=O)[C@H](CCCN=C(N)N)NC(=O)CNC(=O)[C@H](CC(C)C)NC(=O)[C@H](CCCN=C(N)N)NC(=O)[C@H](CCCN=C(N)N)NC(=O)[C@H](CC(C)C)NC(=O)CNC(=O)[C@H](CCCN=C(N)N)NC(C)=O)C(=O)N[C@@H](C)C(=O)N[C@@H](Cc1cnc[nH]1)C(=O)NCC(=O)N[C@H](C(=O)N[C@@H](CCCCN)C(=O)N[C@@H](CCCCN)C(=O)NCC(=O)NCC(=O)N1CCC[C@H]1C(=O)N[C@H](C(=O)N[C@H](C(=O)N[C@@H](CC(C)C)C(=O)N[C@@H](CCCN=C(N)N)C(=O)N[C@H](C(=O)N[C@H](C(=O)N[C@@H](CCCN=C(N)N)C(=O)N[C@H](C(=O)N[C@@H](C)C(=O)NCC(N)=O)[C@@H](C)CC)[C@@H](C)CC)[C@@H](C)CC)C(C)C)[C@@H](C)O)C(C)C [RGLRRLGRKIAHGVKKGGPTVLRIIRIAG]
MIC [1]: ≥ 70.2 µM
MIC [2]: 7.87 µM (≈ 25.1 µg/mL)
MIC [18]: ≥ 100 µM
MIC (Escherichia coli K91BK): ≥ 100 µM

SMILES: CC[C@H](C)[C@H](NC(=O)[C@H](C)NC(=O)[C@H](C)NC(=O)[C@@H]1CCCN1C(=O)[C@@H](NC(=O)[C@H](CC(C)C)NC(=O)[C@H](CO)NC(=O)[C@H](CC(C)C)NC(=O)[C@@H](N)Cc1ccccc1)[C@@H](C)CC)C(=O)N[C@@H](CO)C(=O)N[C@@H](C)C(=O)N[C@H](C(=O)N[C@@H](CO)C(=O)N[C@@H](C)C(=O)N[C@@H](CC(C)C)C(=O)N[C@@H](C)C(=O)N[C@@H](CC(N)=O)C(=O)N[C@@H](Cc1cnc[nH]1)C(=O)N[C@@H](Cc1ccccc1)C(N)=O)C(C)C [FLSLIPAAISAVSALANHF]
MIC [3]: ≥ 132 µM
MIC [4]: ≥ 264 µM
MIC [5]: ≥ 264 µM
MIC [6]: ≥ 512 µM
MIC [7]: > 512 µM
MIC [8]: ≥ 33 µM
MIC [9]: ≥ 33 µM

SMILES: CC[C@H](C)[C@H](NC(=O)[C@H](CCCCN)NC(=O)[C@H](CCCN=C(N)N)NC(=O)[C@H](CCCCN)NC(=O)[C@H](CC(C)C)NC(=O)[C@H](CCCN=C(N)N)NC(=O)[C@H](CCCN=C(N)N)NC(=O)[C@H](CC(C)C)NC(=O)[C@H](CCCCN)NC(=O)[C@H](CCCN=C(N)N)NC(C)=O)C(=O)N[C@@H](C)C(=O)N[C@@H](Cc1cnc[nH]1)C(=O)N[C@@H](CCCCN)C(=O)N[C@H](C(=O)N[C@@H](CCCCN)C(=O)N[C@@H](CCCCN)C(=O)N[C@@H](Cc1ccc(O)cc1)C(N)=O)C(C)C [RKLRRLKRKIAHKVKKY]
MIC [1]: ≥ 100 µM
MIC [2]: ≥ 57.4 µM
MIC [18]: ≥ 100 µM
MIC (Escherichia coli K91BK): ≥ 100 µM

SMILES: CC[C@H](C)[C@H](NC(=O)[C@H](C)NC(=O)CNC(=O)[C@H](Cc1ccccc1)NC(=O)[C@H](CC(C)C)NC(=O)[C@H](CC(C)C)NC(=O)[C@@H]1CCCN1C(=O)[C@H](CC(C)C)NC(=O)[C@@H](N)Cc1ccccc1)C(=O)N[C@@H](CO)C(=O)N[C@@H](Cc1cnc[nH]1)C(=O)N[C@@H](CC(C)C)C(=O)N[C@@H](CC(C)C)C(N)=O [FLPLLFGAISHLL]
MIC [10]: ≥ 44.4 µM
MIC [20]: 30.7 µM (≈ 44.3 µg/mL)

Next, values leading:

MIC [3]: ≥ 32 µM
MIC [4]: ≥ 512 µM
MIC [5]: 16 µM (≈ 28.3 µg/mL)
MIC [6]: ≥ 128 µM
MIC [7]: 256 µM (≈ 452 µg/mL)
MIC [8]: 8 µM (≈ 14.1 µg/mL)
MIC [9]: 16 µM (≈ 28.3 µg/mL)
SMILES: CC[C@H](C)[C@@H]1NC(=O)[C@H](C)NC(=O)[C@@H](NC(=O)[C@H](Cc2ccccc2)NC(=O)[C@@H](NC(=O)[C@H](CCCCN)NC(=O)[C@@H]2CCCN2C(=O)[C@H](CC(C)C)NC(=O)[C@H](Cc2ccccc2)NC(=O)[C@H](CCCCN)NC(=O)[C@@H](N)CCCCN)[C@@H](C)CC)CSSC[C@@H](C(=O)O)NC(=O)[C@H](CCCCN)NC(=O)[C@H](CCCCN)NC(=O)[C@H]([C@@H](C)O)NC1=O [KKFLPKIFCAITKKC]

MIC (Escherichia coli BW25113): 8 µM (≈ 18.6 µg/mL)
SMILES: CC[C@H](C)[C@H](NC(=O)[C@@H]1CCCN1C(=O)[C@H](CCCN=C(N)N)NC(=O)[C@H](CCCN=C(N)N)NC(=O)[C@H](Cc1c[nH]c2ccccc12)NC(=O)[C@@H](N)CCCN=C(N)N)C(=O)N[C@@H](CCCN=C(N)N)C(=O)N[C@@H](CCCN=C(N)N)C(=O)N1CCC[C@H]1C(=O)N1CCC[C@H]1C(=O)N[C@H](C(=O)N[C@@H](CCCN=C(N)N)C(=O)N1CCC[C@H]1C(=O)N1CCC[C@H]1C(=O)N[C@@H](Cc1ccccc1)C(=O)N[C@@H](Cc1ccc(O)cc1)C(=O)N[C@@H](CCCN=C(N)N)C(=O)O)[C@@H](C)CC [RWRRPIRRPPIRPPFYR]

MIC [10]: 1.16 µM (≈ 1.6 µg/mL)
MIC [11]: 36.2 µM (≈ 50 µg/mL)
MIC [12]: ≥ 36.2 µM
MIC [13]: 2.25 µM (≈ 3.1 µg/mL)
MIC [7]: > 145 µM
MIC [14]: > 145 µM
MIC [15]: 9.05 µM (≈ 12.5 µg/mL)
MIC [16]: 2.25 µM (≈ 3.1 µg/mL)
MIC [17]: 2.25 µM (≈ 3.1 µg/mL)
SMILES: CC(C)C[C@H](NC(=O)[C@H](CC(C)C)NC(=O)[C@H](CCCCN)NC(=O)[C@H](CC(C)C)NC(=O)[C@H](CC(C)C)NC(=O)[C@H](Cc1c[nH]c2ccccc12)NC(=O)[C@H](CCCCN)NC(=O)[C@H](CC(C)C)NC(=O)[C@H](CC(C)C)NC(=O)[C@H](CCCCN)NC(=O)[C@@H](N)CC(C)C)C(N)=O [LKLLKWLLKLL]

MIC (Escherichia coli W160-37): 4.5 µM (≈ 10.3 µg/mL)
MIC [19]: 11 µM (≈ 25.1 µg/mL)
SMILES: CC[C@H](C)[C@H](NC(=O)[C@H](CC(C)C)NC(=O)[C@H](CCC(N)=O)NC(=O)[C@H](CCCCN)NC(C)=O)C(=O)N[C@@H](CCCN=C(N)N)C(=O)N[C@@H](Cc1ccccc1)C(=O)N[C@@H](CC(C)C)C(=O)N[C@@H](CCCCN)C(=O)N[C@@H](CCCN=C(N)N)C(=O)N[C@@H](CC(C)C)C(=O)N[C@@H](CC(=O)O)C(=O)N[C@@H](CCCN=C(N)N)C(=O)N[C@@H](CC(N)=O)C(=O)N[C@@H](CC(C)C)C(=O)N[C@@H](Cc1c[nH]c2ccccc12)C(=O)NCC(=O)N[C@@H](CC(C)C)C(=O)N[C@@H](C)C(N)=O [KQLIRFLKRLDRNLWGLA]

MIC (Bacillus subtilis 168): 4.5 µM (≈ 6.32 µg/mL)
MIC [21]: 10.8 µM (≈ 15.2 µg/mL)
MIC (Escherichia coli B): 12.5 µM (≈ 17.6 µg/mL)
MIC [22]: 2.5 µM (≈ 3.51 µg/mL)
MIC (Pseudomonas aeruginosa): > 100 µM
MIC (Staphylococcus aureus): 36.7 µM (≈ 51.6 µg/mL)
SMILES: CC[C@H](C)[C@H](NC(=O)CNC(=O)[C@H](C)NC(=O)[C@H](Cc1c[nH]c2ccccc12)NC(=O)[C@H](CC(C)C)NC(=O)[C@@H](N)CC(N)=O)C(=O)N[C@@H](CC(C)C)C(=O)N[C@@H](CCCCN)C(=O)N[C@@H](Cc1cnc[nH]1)C(=O)N[C@H](C(=O)N[C@H](C(=O)N[C@@H](CCCCN)C(N)=O)[C@@H](C)CC)[C@@H](C)CC [NLWAGILKHIIK]

— DBAASP
